According to US7049331B2, “1,2,4-thiadiazole derivatives as melanocortin receptor modulators” (Ortho-McNeil Pharmaceutical, Inc., priority 2001, dated 2006):

Experiments:
human sebocytes [1] = experiment: Visual observation of lipid granule formation in sebocytes; type: cell-based
Experimental: Semiconfluent cultures of 3T3 mouse fibroblasts (Swiss Albino mouse, ATCC CCL-92) were treated with mitomycin C (4 μg/ml) for 3 hours, trypsinized and seeded at a density of 2.5×10^5/9.5 cm^2 tissue culture plate in Dulbeccos Minimal Essential Medium (DMEM) containing 10% Colorado Calf Serum, PNC (100U/ml), STM (100 μg/ml), L glutamine (0.3 mg/ml), sodium pyruvate (1 mM) and nonessential amino acids (100 μM). The cells were incubated at 37° C. for 24 hours prior to their use as a feeder layer for sebocytes.
Human sebocytes were isolated from Dermatome shavings of postoperative pieces of human skin at 0.4–0.8 mm depths (this part of the skin was previously shown to be enriched in sebaceous glands). Shavings so obtained were treated with 1% Dispase in Iscoves medium containing 10% serum for 20 min at 37° C. The tissue was then placed in 0.3% trypsin/1% EDTA in Phosphate Buffered Saline (PBS) for 10 minutes at 37° C. Following this incubation the cells were gently scraped from the tissue in Growth medium (GM) containing DMEM/F12 media mixture (3:1), supplemented with 8% heat inactivated FBS, 2% heat inactivated human serum (HS), 1 mM sodium pyruvate, epidermal growth factor (10 ng/ml), insulin (10 μg/ml), hydrocortisone (0.4 μg/ml) and +/−cholera toxin (100 μg/ml), L-glutamine and antibiotics. Cells so obtained were filtered through nylon mesh ([…]), centrifuged at 750 RPM, re-suspended in GM and counted.
Resultant cells from the above isolation procedure were plated on the 3T3 feeder layers at 2×10^5/9.5 cm^2 in growth medium and maintained at 37° C. and 5% CO2 for 3 days (Phase I). Following the initial growth period they were transferred to a transition medium (TM) that consisted of DMEM/F12 media supplemented with 1 mM sodium pyruvate, insulin ([…]), transferrin ([…]) and selenium (5.5 μg/ml) (ITS), 2% heat inactivated FBS and 2% heat inactivated human serum as well as +/−cholera toxin (ch.t.) (100 μg/ml), L-glutamine and antibiotics (Phase II). Three days later the cells were changed to differentiation medium (DM), DMEM/F12 supplemented with ITS, 3,3′,5-triido-L-thyronine sodium (3 nM), 1%(v/v) trace element mix and the choice of differentiation agent i.e. bovine pituitary extract (10 μg/ml). This medium was changed every 3 days (Phase III).
Hormones, mixture of hormones i.e. bovine pituitary extract or compounds to be tested were added to the culture at the beginning of phase III. Two criteria were used to evaluate the effect of these materials on sebaceous cultures: 1) visual observations and 2) evaluation of sebaceous lipid accumulation and synthesis. The evaluation of lipid accumulation completed using the Nile red method. This method relies on visualization of neutral lipids by Nile red and quantitation by reading of fluorescence at 535 nm excitation, 580 nm emission using a plate reader. The lipid synthesis was evaluated by radioactive labeling using ^14C acetate and quantified by Bio Rad Phosphoimager (Molecular Imager, FX) using 4.1 Software.
Quantitation of accumulation/inhibition of neutral lipids in sebocytes was accomplished by Nile red binding assay. Briefly, following exposure of sebocytes to test compounds, the cells were allowed to interact with 1 μM Nile red in Hanks buffered saline solution containing DMSO and Pluronic F127. After 4 hours of incubation, washing and incubation overnight, the fluorescence was read at 535 excitation and 580 emission using a fluorescence plate reader.
Following the procedure described above, select compounds of the present invention were tested for visual and Nile red evaluation of lipid accumulation, with results as listed in Table 9.
Following the procedure described above, select compounds of the present invention were tested for their inhibitory effect on differentiation of human sebocytes. […]

MC5-R = MC5-R (Homo sapiens, UniProt P33032); experiment: MC5-R binding
MC5-R, sequence (P33032 whole entry): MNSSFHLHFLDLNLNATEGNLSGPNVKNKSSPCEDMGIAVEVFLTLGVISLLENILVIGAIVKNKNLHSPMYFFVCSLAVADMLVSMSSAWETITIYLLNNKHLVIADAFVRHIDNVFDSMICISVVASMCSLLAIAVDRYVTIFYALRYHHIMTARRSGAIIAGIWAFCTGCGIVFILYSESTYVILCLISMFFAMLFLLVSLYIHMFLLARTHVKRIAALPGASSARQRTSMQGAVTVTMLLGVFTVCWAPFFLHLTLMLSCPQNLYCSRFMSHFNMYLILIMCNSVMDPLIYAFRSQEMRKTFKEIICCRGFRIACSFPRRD

human sebocytes [2] = experiment: Nile red evaluation of lipid accumulation in sebocytes; type: cell-based; details: for inhibition at 0.4 µM: read-out: % Inh 0.4 μM (lipid accumulation, Nile red); for inhibition at 0.8 µM: read-out: % Inh 0.8 μM (lipid accumulation, Nile red)
Experimental: The cells were incubated at 37° C. for 24 hours prior to their use as a feeder layer for sebocytes. Human sebocytes were isolated from Dermatome shavings of postoperative pieces of human skin at 0.4-0.8 mm depths (this part of the skin was previously shown to be enriched in sebaceous glands). […] This medium was changed every 3 days (Phase III). Hormones, mixture of hormones i.e. bovine pituitary extract or compounds to be tested were added to the culture at the beginning of phase III. […] The evaluation of lipid accumulation completed using the Nile red method. This method relies on visualization of neutral lipids by Nile red and quantitation by reading of fluorescence at 535 nm excitation, 580 nm emission using a plate reader. The lipid synthesis was evaluated by radioactive labeling using ^14C acetate and quantified by Bio Rad Phosphoimager (Molecular Imager, FX) using 4.1 Software. […] Quantitation of accumulation/inhibition of neutral lipids in sebocytes was accomplished by Nile red binding assay. Briefly, following exposure of sebocytes to test compounds, the cells were allowed to interact with 1 μM Nile red in Hanks buffered saline solution containing DMSO and Pluronic F127. After 4 hours of incubation, washing and incubation overnight, the fluorescence was read at 535 excitation and 580 emission using a fluorescence plate reader. […] Following the procedure described above, select compounds of the present invention were tested for visual and Nile red evaluation of lipid accumulation, with results as listed in Table 9.

[3] = molecular target: T1, melanocortin MC-4 receptor (Homo sapiens, UniProt P32245); experiment: Melanocortin MC-4 Receptor Binding Assay (SPA)
T1 construct: purchased Receptor Biology Inc
T1 sequence (P32245 whole entry): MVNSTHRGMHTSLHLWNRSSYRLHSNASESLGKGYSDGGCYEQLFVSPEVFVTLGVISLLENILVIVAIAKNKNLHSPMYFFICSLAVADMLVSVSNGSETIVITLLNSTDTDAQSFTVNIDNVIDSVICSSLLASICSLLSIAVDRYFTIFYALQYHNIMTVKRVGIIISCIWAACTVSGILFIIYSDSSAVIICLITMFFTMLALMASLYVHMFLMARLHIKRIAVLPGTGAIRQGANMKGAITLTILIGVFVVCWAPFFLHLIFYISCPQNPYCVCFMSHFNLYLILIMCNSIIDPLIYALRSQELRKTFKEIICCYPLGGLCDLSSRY
Method in brief: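 Membranes bound to WGA SPA beads were incubated 16 h at 25° C with 40 pM ¹²⁵I-NDP-MSH and test compound (1 mM stock in 30% DMSO-HEPES pH 7.4). Nonspecific binding set with 1 μM NDP-MSH or α-MSH; percent inhibition from bound cpm.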

rat adipocytes = details: read-out: EC50 lipolytic activity; cited from earlier work
rabbit adipocytes = details: read-out: EC50 lipolytic activity; cited from earlier work
[4] = tested on: isolated human and non-human primate adipocytes; details: concentrations as high as 1 μM; cited from earlier work
[5] = tested on: Male Long-Evans rats, facial nerve compression; experiment: In vivo Facial Nerve Compression Model; design: species or system rat; details: test compounds p.o. 20 mg/kg bid, αMSH s.c. 70 ug/each 48 hr
Source text: The ability of test compound to provide neuro-protective or neuro-regenerative effects was investigated in a facial nerve compression model. Facial nerve motor axons arise exclusively from neurons within the pons in a well-defined nucleus. Facial nerve compression results in retrograde reactions proximal to the lesion site and Wallerian degeneration at its distal part, which causes diminished whisker movement on the lesioned side.
Male Long-Evans rats (150–180 g) were anesthetized with 3–5% isoflorane for induction and 2% for maintenance during the surgical procedures. The right facial nerve was exposed and compressed with forceps for 30 sec at its exit from the stylomastoid foramen. The left facial nerve was sham-operated and served as an internal control. […] The following morphological abnormalities associated with the functional deficit were observed:
After recovery from anesthesia, the rats were randomly divided into groups for dosing with vehicle, αMSH or test compound, with 6 animals per group. αMSH (s.c., 70 ug/each 48 hr) was used as a positive control. Test compounds were dosed p.o. at 20 mg/kg bid for 14 days. Restoration of whisker movement was monitored daily after the operation using two criteria:
(1) frequency of whisker movement on the lesioned side relative to the opposite side (sham-operated) which served as the baseline control
(2) semi-quantitative measurements (0 to 4+) on strength of the whisker muscles, characterized based on observation of the percentage of moved whiskers, muscle tone of whisker muscles, and the position of the nose. For all observations, the experimental design was blind to the behavioral observer.
The recovery rate of the whisker movement was expressed as percentage of its own internal control (sham-operated), as listed in Table 8.

Compound: COc1ccccc1Nc1nc(-c2ccccc2OC)[n+](-c2ccccc2OC)s1 [Compound 76]
- Visual* 0.4 μM (inhibition of lipid granule formation) (human sebocytes [1]): ++ (++ =50%)
- Visual* 0.8 μM (inhibition of lipid granule formation) (human sebocytes [1]): +++ (+++ = 75%)
- IC50 (MC5-R): 317 nM
- inhibition at 0.4 µM (human sebocytes [2]): 48%
- inhibition at 0.8 µM (human sebocytes [2]): 88%
- IC50 [3]: 332 nM

Compound: COc1ccccc1-c1nc(Nc2ccccc2Cl)s[n+]1-c1ccccc1OC [Compound 80]
- Visual* 0.4 μM (inhibition of lipid granule formation) (human sebocytes [1]): ++ (++ =50%)
- Visual* 0.8 μM (inhibition of lipid granule formation) (human sebocytes [1]): ++++ (++++ = 100%)
- IC50 (MC5-R): 138 nM
- inhibition at 0.4 µM (human sebocytes [2]): 61%
- inhibition at 0.8 µM (human sebocytes [2]): 91%
- IC50 [3]: 378 nM

Compound: ACTH: melanocortin neuropeptide arising from pro-opiomelanocortin (POMC) (SYSMEHFRWGKPVGKKRRPVKVYPNGAEDESAEAFPLEF; Corticotropin; UniProt P01189 138-176, looked up)
- EC50 (rat adipocytes): 1.34 nM
- EC50 (rabbit adipocytes): 16.4 nM
- effect on lipolysis [4]: very little effect on lipolysis

Compound: α-MSH: alpha-melanocyte stimulating hormone peptide, used as a positive control [reference compound]
- Percent Recovery of whisker movement D9 ([5]; D9, % of sham-operated side): 2.0%
- Percent Recovery of whisker movement D10 ([5]; D10): 24.6%
- Percent Recovery of whisker movement D11 ([5]; D11): 60.1%
- Percent Recovery of whisker movement D12 ([5]; D12): 93.8%
- Percent Recovery of whisker movement D13 ([5]; D13): 98.1%
- Percent Recovery of whisker movement D14 ([5]; D14): 100%
- EC50 (rabbit adipocytes): 3.7 nM
